Test results from ChEMBL document CHEMBL1201862, “PubChem BioAssay data set” (2004).
Calls of active or inactive are those of the source. For most assays here, no stated cut-off is given here; in the data, actives have a measured EC50 and inactives only a lower limit.

Key:
[1] = luciferase reporter signal suppression in cells – H4 neuroglioma cells, luminescence, dose response (AID 1990); assay type: functional, cell-based
[2] = luciferase reporter signal reduction – luminescence, H4-C neuroglioblastoma cells, dose response (AID 2458); assay type: functional, cell-based;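 further: H4 neuroglioblastoma cells stably carrying a luciferase reporter gene fusion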
BJ [3] = assay: BJ-TERT fibroblast viability loss – cell-based, RAS-independent, luminescence, dose response (AID 1933); assay type: functional; conditions: Homo sapiens
[4] = target: T1, Luciferin 4-monooxygenase (Photinus pyralis, UniProt P08659); assay: Counter Screen for Luciferase-based Assay Positives. [Related pubchem assays: 620, 618, 411 ]
T1 sequence (P08659 whole entry): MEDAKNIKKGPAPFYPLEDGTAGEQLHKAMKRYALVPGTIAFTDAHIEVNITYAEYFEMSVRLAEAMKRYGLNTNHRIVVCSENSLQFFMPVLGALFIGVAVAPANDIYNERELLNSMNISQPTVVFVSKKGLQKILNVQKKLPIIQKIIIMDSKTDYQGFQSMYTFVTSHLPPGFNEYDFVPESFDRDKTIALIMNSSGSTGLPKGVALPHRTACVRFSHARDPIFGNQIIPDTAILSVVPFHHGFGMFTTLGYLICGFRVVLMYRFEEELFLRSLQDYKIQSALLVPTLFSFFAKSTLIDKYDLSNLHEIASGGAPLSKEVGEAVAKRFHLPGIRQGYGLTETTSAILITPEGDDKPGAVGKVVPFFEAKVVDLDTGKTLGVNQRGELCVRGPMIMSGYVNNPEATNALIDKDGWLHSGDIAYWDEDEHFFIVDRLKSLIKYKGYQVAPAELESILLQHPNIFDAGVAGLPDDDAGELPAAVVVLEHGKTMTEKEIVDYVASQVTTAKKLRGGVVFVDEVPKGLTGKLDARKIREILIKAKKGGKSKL

HEK293 [5] = assay: PMA/Ionomycin induced NF-kB luciferase assay in 293- NF-kB-Luc stable cells. [Related pubchem assays: 1299, 1270, 1295, 1375, 1287, 1281, 1293, 1291, 1289, 1280, 465, 1364, 1282, 1372, 1365, 1370, 1367, 1366, 1269, 1373, 1292, 1290, 1302, 1371, 1283, 1271, 1294, 1374, 1368, 1369 ]; assay type: functional, cell-based; conditions: Homo sapiens
[6] = target: T1, Luciferin 4-monooxygenase; assay: In vitro luciferase assay using purified luciferase. [Related pubchem assays: 1299, 1270, 1295, 1375, 1287, 1281, 1293, 1291, 1289, 1280, 465, 1364, 1282, 1372, 1365, 1370, 1367, 1366, 1266, 1373, 1292, 1290, 1302, 1371, 1283, 1271, 1294, 1374, 1368, 1369 ]
cells = assay type: functional, cell-based
[7] = alpha-synuclein stem-loop luciferase translation blockers – H4 neuroglioma cells, luminescence, confirmation (AID 1988); assay type: functional, cell-based
[8] = target: T1, Luciferin 4-monooxygenase; assay: inhibition of purified Photinus pyralis luciferase – biochemical, luminescence, dose response (AID 1891)
[9] = Luminescence Cell-Based Dose Confirmation HTS to Identify Inhibitors of Platelet Dense Granule Release. [Related pubchem assays: 1663 (Primary HTS), 1678 (Summary of Project)]; assay type: functional
HT-1080 = assay: HT1080 cell viability loss – fluorescence readout (AID 620); assay type: functional, cell-based; conditions: Homo sapiens
HEK293 [10] = assay: Cytotoxicity assay in HEK293 cells. [Related pubchem assays (depositor defined):AID1266, AID1269, AID1270, AID1271, AID1280, AID1281, AID1282, AID1283, AID1287, AID1289, AID1290, AID1291, AID1292, AID1293, AID1294, AID1295, AID1299, AID1302, AID1364, AID1365, AID1366, AID1367, AID1369, AID1370, AID1371, AID1372, AID1373, AID1374, AID1375, AID1384 …; assay type: functional, cell-based; conditions: Homo sapiens
BJ [11] = assay: BJ-TERT-LT-ST fibroblast viability loss – cell-based, RAS-independent, luminescence, dose response (AID 1935); assay type: functional; conditions: Homo sapiens;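 further: BJ fibroblasts immortalized with TERT plus LT and ST oncogenes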
[12] = DRD fibroblast viability loss – cell-based, non-viral oncogenic, luminescence, dose response (AID 1934); assay type: functional; conditions: Homo sapiens
[13] = target: Mitogen-activated protein kinase 10 (Homo sapiens, UniProt P53779); assay: Dose response biochemical screening assay for inhibitors of c-Jun N-Terminal Kinase 3 (JNK3). [Related pubchem assays: 746 ]
Chain of Mitogen-activated protein kinase 10 (P53779 whole entry): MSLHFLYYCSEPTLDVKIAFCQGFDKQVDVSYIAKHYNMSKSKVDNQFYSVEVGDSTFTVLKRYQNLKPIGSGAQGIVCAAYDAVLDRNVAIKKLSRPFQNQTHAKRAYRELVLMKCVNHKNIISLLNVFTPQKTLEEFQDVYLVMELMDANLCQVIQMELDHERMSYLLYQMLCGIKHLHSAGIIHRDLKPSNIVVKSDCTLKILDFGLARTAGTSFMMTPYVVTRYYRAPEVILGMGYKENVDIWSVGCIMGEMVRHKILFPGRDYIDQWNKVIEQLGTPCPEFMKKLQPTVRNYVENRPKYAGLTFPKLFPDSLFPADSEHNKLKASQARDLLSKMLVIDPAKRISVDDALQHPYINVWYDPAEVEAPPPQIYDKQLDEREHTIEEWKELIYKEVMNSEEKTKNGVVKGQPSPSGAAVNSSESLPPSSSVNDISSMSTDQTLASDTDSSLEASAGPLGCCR

[14] = alpha-synuclein stem-loop translation blockers – luminescence, H4 neuroglioblastoma cells, dose confirmation, confirmation (AID 2454); assay type: functional, cell-based;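 further: H4 neuroglioblastoma cells carrying an alpha-synuclein 5'UTR luciferase reporter; potency for inhibition of the luciferase signal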
[15] = HEK-293T viability loss after treatment – luminescence, T-cell screen hits, cytotoxicity control for TCR NF-kB inhibitor project, dose response (AID 489026); assay type: functional, cell-based;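 further: cells exposed to compound about 14 hours before the viability readout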
BJ [16] = assay: growth inhibition of engineered Ras-driven BJ cells – cell-based, alamar blue fluorescence, cherrypicked samples, dose response (AID 2631); assay type: functional; conditions: Homo sapiens;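 further: confirmatory dose-response assay in RAS-dependent BJ fibroblasts engineered with TERT, LT and ST, with cytotoxicity read by fluorescence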
[17] = target: Signal transducer and activator of transcription 3 (Homo sapiens, UniProt P40763); assay: STAT3 activation with BCL3 mRNA and toxicity – cell-based, […], BCL3 qPCR, cytotoxicity, late-stage follow-up, panel member STAT3 Activation (AID 2049)
Chain of Signal transducer and activator of transcription 3 (P40763 whole entry): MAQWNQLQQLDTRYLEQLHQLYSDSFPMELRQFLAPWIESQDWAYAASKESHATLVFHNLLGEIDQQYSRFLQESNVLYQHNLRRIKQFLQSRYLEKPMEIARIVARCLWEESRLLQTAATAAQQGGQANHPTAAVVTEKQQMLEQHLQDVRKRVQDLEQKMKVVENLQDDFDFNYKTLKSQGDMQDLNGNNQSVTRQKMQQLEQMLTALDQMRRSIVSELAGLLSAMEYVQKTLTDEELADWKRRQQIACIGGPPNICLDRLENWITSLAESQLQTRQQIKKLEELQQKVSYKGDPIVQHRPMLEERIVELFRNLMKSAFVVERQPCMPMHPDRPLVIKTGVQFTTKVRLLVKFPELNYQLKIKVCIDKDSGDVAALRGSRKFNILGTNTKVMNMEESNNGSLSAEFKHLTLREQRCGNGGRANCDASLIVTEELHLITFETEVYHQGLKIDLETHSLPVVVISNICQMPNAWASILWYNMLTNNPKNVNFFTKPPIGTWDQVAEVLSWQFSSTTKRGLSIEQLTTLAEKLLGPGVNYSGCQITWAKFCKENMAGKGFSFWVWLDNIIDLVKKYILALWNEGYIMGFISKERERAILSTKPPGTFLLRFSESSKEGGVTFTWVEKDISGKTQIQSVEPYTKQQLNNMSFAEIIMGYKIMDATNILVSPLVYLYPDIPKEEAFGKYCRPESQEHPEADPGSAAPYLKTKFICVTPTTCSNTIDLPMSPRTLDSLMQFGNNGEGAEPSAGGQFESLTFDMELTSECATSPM

[18] = target: T2, Tyrosine-protein phosphatase non-receptor type 7 (Homo sapiens, UniProt P35236); assay: SAR analysis of chemical inhibitors of HePTP using a Fluorescent assay - Set 2. [Related pubchem assays (depositor defined):AID1059, AID1077, AID1661, AID2085, AID521]; assay type: functional
T2 sequence (P35236 whole entry): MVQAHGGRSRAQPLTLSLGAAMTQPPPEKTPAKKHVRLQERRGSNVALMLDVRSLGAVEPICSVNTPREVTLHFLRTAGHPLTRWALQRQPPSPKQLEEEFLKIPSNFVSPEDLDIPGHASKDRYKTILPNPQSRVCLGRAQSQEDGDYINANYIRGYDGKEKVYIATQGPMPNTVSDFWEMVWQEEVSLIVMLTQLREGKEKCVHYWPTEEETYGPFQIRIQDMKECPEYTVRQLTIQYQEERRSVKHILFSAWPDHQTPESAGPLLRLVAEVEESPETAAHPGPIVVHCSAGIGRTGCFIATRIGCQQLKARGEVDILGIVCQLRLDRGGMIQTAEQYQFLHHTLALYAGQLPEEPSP

[19] = target: Dual specificity protein phosphatase 3 (Homo sapiens, UniProt P51452); assay: SAR VHR1 Fluorescent Assay for In Vitro dose response studies Set 2. [Related pubchem assays (depositor defined):AID1654, AID1661, AID1878]; assay type: functional
Chain of Dual specificity protein phosphatase 3 (P51452 whole entry): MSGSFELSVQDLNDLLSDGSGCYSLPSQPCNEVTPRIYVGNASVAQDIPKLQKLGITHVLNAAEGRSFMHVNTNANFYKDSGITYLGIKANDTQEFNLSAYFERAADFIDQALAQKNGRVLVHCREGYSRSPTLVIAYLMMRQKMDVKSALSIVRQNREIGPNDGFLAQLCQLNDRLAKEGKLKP

## CCCN1C=CC(=C2C(=O)c3ccccc3C2=O)C=C1
[1]
  EC50: < 0.195 µM (active)
[2]
  EC50: 0.127 µM (active)
BJ [3]
  EC50: 6.69 µM (active)
[4]
  EC50: 0.98 µM (active)
HEK293 [5]
  EC50: 0.774 µM (active)
[6]
  EC50: 1.09 µM (active)
cells
  EC50: 0.135 µM (active)
[7]
  EC50: < 0.1 µM (active)
[8]
  EC50: 0.719 µM (active)
[9]
  EC50: 7.02 µM (active)
HT-1080
  EC50: > 50 µM (not active)
HEK293 [10]
  EC50: 0.589 µM (active)
BJ [11]
  EC50: 18.2 µM (active)
[12]
  EC50: 6.78 µM (active)
[13]
  IC50: 9.84 µM (active)
[14]
  EC50: 0.139 µM (active)
[15]
  IC50: > 80 µM (inactive)
BJ [16]
  EC50: > 133 µM (inactive)

## O=C(Nc1ccccc1Cl)c1cc(C2CC2)on1
[17]
  EC50: 6.08 µM (active)

## COc1cc(C(=S)NCc2ccc(C(F)(F)F)cc2)ccc1O
[18]
  IC50: > 100 µM (inactive)
[19]
  IC50: 86.9 µM (active)
